One test deals with CDK9/T1 (Homo sapiens, UniProt P50750). As to the kind of experiment: ADP Glo Kinase assay CDK9/T1. It is filed as biochemical. Conditions: CDK9T1; read-out: CDK inhibition, Ki (μM) CDK9T1. The procedure, abridged: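 ADP Glo luminescence, in-house: CDK4/D1, CDK6/D3 on RB-CTF substrate (Tris pH 7.5, MgCl2, DTT, BSA); CDK9/T1 on RBER-IRStide. Reaction 40 min, 37° C after ATP addition. 10-point 1:3 series, 10 μM to 0.5 nM. IC50 by 4-parameter logistic; Ki derived using ATP Km.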

The next test deals with CDK4/D1 (Homo sapiens, UniProt P11802). The test can be described thus: ADP Glo Kinase assay CDK4/D1. Type of test: biochemical. Conditions: CDK4D1; compound at 10 μM; read-out: residual activity (%) at 10 μM CDK4D1. In a few lines: (§1)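 Luminescent ADP detection measured activity after a 40 min, 37° C ATP-initiated reaction, using RB-CTF for CDK4/D1 and CDK6/D3 and RBER-IRStide for CDK9/T1. Controls lacked or contained kinase. Values: IC50 by four-parameter nonlinear regression, Ki from ATP Km.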
(ADP-Glo first removes unused ATP, then detects ADP through luciferase.)

For test [1], the target named is T1, CDKs and other kinases (Homo sapiens, UniProt P24941).
T1 construct: other: CDK2A; residual activity (%) at 10 μM CDK2A; compound at 10 μM
The test can be described thus: Radiometric kinase assay (Eurofins Pharma Discovery or Reaction Biology Corporation Kinase Profiler). It is filed as biochemical. Conditions: CDK2A; for remaining activity at 10 µM: compound at 10 μM, read-out: residual activity (%) at 10 μM CDK2A; for Ki: read-out: CDK inhibition, Ki (μM) CDK2A. In a few lines:
(§2)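 Other CDKs and further kinases were profiled externally by radiometric assay. In-house ADP Glo assays covered CDK4/D1 and CDK6/D3 (RB-CTF substrate, pH 7.5 Tris buffer with MgCl2, DTT, BSA) and CDK9/T1 (RBER-IRStide substrate), 40 min at 37° C.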

Test [2] concerns the target T2, CDKs and other kinases (Homo sapiens, UniProt P06493).
T2 construct: other: CDK1B; residual activity (%) at 10 μM CDK1B; compound at 10 μM
The test is described as above. It is filed as biochemical. Conditions: CDK1B; for remaining activity at 10 µM: compound at 10 μM, read-out: residual activity (%) at 10 μM CDK1B; for Ki: read-out: CDK inhibition, Ki (μM) CDK1B. In a few lines:
as §2

In test [3] the target is T3, CDKs and other kinases (Homo sapiens, UniProt P50613).
T3 construct: other: CDK7H; residual activity (%) at 10 μM CDK7H; compound at 10 μM
The test is described as above. It is filed as biochemical. Conditions: CDK7H; for remaining activity at 10 µM: compound at 10 μM, read-out: residual activity (%) at 10 μM CDK7H; for Ki: read-out: CDK inhibition, Ki (μM) CDK7H. The procedure, abridged:
as §2

The target in a further test is CDK6/D3 (Homo sapiens, UniProt Q00534). As to the kind of experiment: ADP Glo Kinase assay CDK6/D3. It is filed as biochemical. Conditions: CDK6D3; compound at 10 μM; read-out: residual activity (%) at 10 μM CDK6D3. In a few lines: as §1
Another test deals with leukemia cell lines. As to the kind of experiment: Resazurin cell viability assay on leukemia cell lines (72 h growth inhibition, GI50). Type of test: cell-based. Conditions: Homo sapiens, MV4-11 cells. The procedure, abridged:
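Viability is measured by MTT in solid tumour cells and by resazurin in leukaemia cells. Reported values are GI50s calculated with non-linear regression analysis.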

T3 sequence (P50613 whole entry): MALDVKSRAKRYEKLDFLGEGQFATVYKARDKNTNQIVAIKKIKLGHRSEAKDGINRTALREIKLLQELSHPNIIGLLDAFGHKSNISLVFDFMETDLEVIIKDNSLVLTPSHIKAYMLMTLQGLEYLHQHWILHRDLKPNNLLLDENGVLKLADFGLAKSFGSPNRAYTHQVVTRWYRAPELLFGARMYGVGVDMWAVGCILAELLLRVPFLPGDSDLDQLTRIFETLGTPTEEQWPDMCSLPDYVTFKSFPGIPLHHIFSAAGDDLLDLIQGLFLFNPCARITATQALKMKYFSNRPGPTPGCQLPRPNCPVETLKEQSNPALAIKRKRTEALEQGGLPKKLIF
T2 sequence (P06493 whole entry): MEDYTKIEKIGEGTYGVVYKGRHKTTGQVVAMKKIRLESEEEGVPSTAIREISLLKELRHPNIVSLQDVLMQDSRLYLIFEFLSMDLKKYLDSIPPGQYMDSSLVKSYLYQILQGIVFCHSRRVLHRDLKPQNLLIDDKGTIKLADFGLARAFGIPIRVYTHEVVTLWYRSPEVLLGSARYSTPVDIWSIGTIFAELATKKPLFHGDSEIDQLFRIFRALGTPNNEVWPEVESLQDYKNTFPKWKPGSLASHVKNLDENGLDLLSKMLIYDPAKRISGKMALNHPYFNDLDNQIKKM
Chain of CDK9/T1 (P50750 whole entry): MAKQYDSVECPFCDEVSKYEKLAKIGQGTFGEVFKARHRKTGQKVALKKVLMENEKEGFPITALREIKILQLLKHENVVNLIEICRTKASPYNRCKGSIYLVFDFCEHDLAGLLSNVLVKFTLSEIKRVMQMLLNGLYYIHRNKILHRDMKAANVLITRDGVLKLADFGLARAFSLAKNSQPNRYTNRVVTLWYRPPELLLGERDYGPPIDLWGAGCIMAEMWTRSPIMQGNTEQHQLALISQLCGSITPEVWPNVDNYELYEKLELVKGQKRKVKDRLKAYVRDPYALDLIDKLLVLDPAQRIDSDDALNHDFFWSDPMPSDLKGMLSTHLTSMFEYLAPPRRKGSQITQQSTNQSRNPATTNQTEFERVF
Chain of CDK9/T1 (O60563 whole entry partner): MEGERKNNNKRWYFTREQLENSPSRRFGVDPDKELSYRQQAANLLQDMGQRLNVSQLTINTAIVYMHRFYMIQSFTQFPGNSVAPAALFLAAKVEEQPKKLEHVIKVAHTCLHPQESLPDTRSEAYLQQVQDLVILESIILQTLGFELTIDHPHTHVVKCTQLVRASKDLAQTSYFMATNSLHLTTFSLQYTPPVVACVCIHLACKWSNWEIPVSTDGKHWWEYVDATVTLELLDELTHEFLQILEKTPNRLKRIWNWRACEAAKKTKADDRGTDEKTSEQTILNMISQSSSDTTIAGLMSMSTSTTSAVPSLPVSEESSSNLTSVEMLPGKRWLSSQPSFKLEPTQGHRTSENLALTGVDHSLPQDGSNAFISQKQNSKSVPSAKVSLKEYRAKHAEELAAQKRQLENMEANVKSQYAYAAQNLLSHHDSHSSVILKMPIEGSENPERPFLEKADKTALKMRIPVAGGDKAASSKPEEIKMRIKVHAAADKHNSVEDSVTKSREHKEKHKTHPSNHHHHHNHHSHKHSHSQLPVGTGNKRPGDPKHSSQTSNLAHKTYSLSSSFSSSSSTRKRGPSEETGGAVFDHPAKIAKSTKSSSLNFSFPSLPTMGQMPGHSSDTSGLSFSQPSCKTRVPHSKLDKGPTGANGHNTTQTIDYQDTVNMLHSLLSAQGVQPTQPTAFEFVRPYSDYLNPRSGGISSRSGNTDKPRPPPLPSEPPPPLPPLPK
Chain of CDK6/D3 (Q00534 whole entry): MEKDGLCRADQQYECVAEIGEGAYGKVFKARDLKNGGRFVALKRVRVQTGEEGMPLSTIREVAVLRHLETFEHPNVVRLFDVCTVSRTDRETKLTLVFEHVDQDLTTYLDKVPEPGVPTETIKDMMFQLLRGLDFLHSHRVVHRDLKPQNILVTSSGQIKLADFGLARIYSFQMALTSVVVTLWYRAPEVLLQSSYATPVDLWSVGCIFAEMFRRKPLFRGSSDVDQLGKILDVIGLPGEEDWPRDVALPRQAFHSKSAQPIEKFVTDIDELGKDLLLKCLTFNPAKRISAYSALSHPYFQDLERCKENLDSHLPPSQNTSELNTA
Chain of CDK6/D3 (P30281 whole entry partner): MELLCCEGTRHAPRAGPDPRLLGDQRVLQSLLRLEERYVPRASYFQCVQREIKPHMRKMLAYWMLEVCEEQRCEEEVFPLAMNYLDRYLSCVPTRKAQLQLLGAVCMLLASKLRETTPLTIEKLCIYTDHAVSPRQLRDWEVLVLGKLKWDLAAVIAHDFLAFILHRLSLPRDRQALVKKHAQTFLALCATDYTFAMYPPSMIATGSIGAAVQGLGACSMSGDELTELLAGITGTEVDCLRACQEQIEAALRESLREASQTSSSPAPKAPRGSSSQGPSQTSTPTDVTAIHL
Chain of CDK4/D1 (P11802 whole entry): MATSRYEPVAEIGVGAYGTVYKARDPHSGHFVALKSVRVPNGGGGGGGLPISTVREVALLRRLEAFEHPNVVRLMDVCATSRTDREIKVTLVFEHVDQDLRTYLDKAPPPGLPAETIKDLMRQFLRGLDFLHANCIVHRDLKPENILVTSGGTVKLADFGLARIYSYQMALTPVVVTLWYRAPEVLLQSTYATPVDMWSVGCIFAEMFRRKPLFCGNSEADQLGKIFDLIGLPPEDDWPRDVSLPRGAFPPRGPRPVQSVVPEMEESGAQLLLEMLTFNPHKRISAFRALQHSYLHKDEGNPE
Chain of CDK4/D1 (P24385 whole entry partner): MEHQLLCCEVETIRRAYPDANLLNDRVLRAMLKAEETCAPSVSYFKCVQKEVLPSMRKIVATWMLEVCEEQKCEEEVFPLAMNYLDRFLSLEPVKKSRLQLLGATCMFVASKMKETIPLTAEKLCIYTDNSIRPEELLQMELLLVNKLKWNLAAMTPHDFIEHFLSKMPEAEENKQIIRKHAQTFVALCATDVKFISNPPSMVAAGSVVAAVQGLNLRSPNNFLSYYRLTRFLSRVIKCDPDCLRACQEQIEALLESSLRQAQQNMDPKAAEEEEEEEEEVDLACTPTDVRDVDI

In the case of `COc1cccc(-c2ccc3ncc(-c4nc(N[C@H]5CC[C@H](N)CC5)ncc4C)n3c2)c1` [Compound 57, (1r,4r)-N^1-(4-(6-(3-Methoxyphenyl)imidazo[1,2-a]pyridin-3-yl)-5-methylpyrimidin-2-yl)cyclohexane-1,4-diamine], the Ki (commonly a measure of affinity in units of concentration, obtained from inhibition or displacement) at CDK9/T1 was found to be 0.069 µM. Moreover, the remaining activity at 10 µM on CDK4/D1 was 45%; at CDKs and other kinases [1], 31%; on CDKs and other kinases [2] it was 47%; on CDKs and other kinases [3] it was 17%; on CDK6/D3, 39%. In addition, in the test on leukemia cell lines, it took 0.067 ± 0.014 µM to inhibit growth by half (GI50).

As to `CS(=O)(=O)N[C@H]1CC[C@H](Nc2ncc(Cl)c(-c3cnc4c(Br)cc(C(F)(F)F)cn34)n2)CC1` [Compound 18, N-((1r,4r)-4-((4-(8-Bromo-6-(trifluoromethyl)imidazo [1,2-a]pyridin-3-yl)-5-chloropyrimidin-2-yl)amino)cyclohexyl)methanesulfonamide], the Ki turned out to be 0.148 µM on CDK9/T1; 0.007 µM on CDKs and other kinases [1]; 0.028 µM at CDKs and other kinases [2]; 0.001 µM at CDKs and other kinases [3]. In addition, the remaining activity at 10 µM at CDK4/D1 amounted to 9%; at CDK6/D3, 41%. For the same molecule, growth with leukemia cell lines was halved (GI50) at 6.11 ± 1.14 µM.

Regarding `N[C@H]1CC[C@H](Nc2ncc(Cl)c(-c3cnc4ccc(-c5ccccc5)cn34)n2)CC1` [Compound 79, (1r,4r)-N^1-(5-Chloro-4-(6-phenylimidazo[1,2-a]pyridin-3-yl)pyrimidin-2-yl)cyclohexane-1,4-diamine], the Ki turned out to be 0.004 µM at CDK9/T1; 0.071 µM on CDKs and other kinases [1]; 0.27 µM at CDKs and other kinases [2]; 0.079 µM on CDKs and other kinases [3]. The remaining activity at 10 µM at CDK4/D1 is 13%; at CDK6/D3, 80%. Moreover, it took 0.008 ± 0.001 µM to inhibit growth in the test with leukemia cell lines by half (GI50).

With `Cc1cnc(N[C@H]2CC[C@H](N)CC2)nc1-c1cnc2ccc(NC(=O)Cc3ccccc3)cn12` [Compound 73, N-(3-(2-(((1r,4r)-4-Aminocyclohexyl)amino)-5-methylpyrimidin-4-yl)imidazo[1,2-a]pyridin-6-yl)-2-phenylacetamide], the Ki at CDK9/T1 is 0.469 µM. Moreover, the remaining activity at 10 µM is 53% on CDK4/D1; 62% at CDKs and other kinases [1]; 75% at CDKs and other kinases [2]; 63% on CDKs and other kinases [3]; 49% at CDK6/D3. In the test on leukemia cell lines, the GI50 – broadly, the concentration at which growth is held to half of that of the control – is 0.752 ± 0.055 µM.

As to `Cc1cnc(N[C@H]2CC[C@H](N)CC2)nc1-c1cnc2ccc(Nc3ccc(OC(F)F)nc3)cn12` [Compound 68, (1r,4r)-N^1-(4-(6-((6-(Difluoromethoxy)pyridin-3-yl)amino)imidazo[1,2-a]pyridin-3-yl)-5-methylpyrimidin-2-yl) cyclohexane-1,4-diamine], the Ki on CDK9/T1 was determined as 0.033 µM; on CDKs and other kinases [1], 0.35 µM; at CDKs and other kinases [2] it was 2.18 µM; at CDKs and other kinases [3], 0.71 µM. The results for the remaining activity at 10 µM on CDK4/D1 and at CDK6/D3 were 37% and 23%, respectively. Moreover, the GI50 in the test with leukemia cell lines turned out to be 0.127 ± 0.002 µM.

Turning to `CS(=O)(=O)N[C@H]1CC[C@H](Nc2ncc(Cl)c(-c3cnc4ccc(Br)cn34)n2)CC1` [Compound 17, N-((1r,4r)-4-((4-(6-Bromoimidazo[1,2-a]pyridin-3-yl)-5-chloropyrimidin-2-yl)amino)cyclohexyl) methanesulfonamide], the Ki worked out at 0.062 µM on CDK9/T1; 0.0004 µM at CDKs and other kinases [1]; 0.004 µM on CDKs and other kinases [2]; 0.001 µM on CDKs and other kinases [3]. Also, the remaining activity at 10 µM at CDK4/D1 is 1%; at CDK6/D3, 26%. Further, the concentration for 50% growth inhibition (GI50) in the test with leukemia cell lines is under 0.001 µM.

As for `Cc1cnc(NC2CCCC(N)C2)nc1-c1cnc2ccc(Nc3cccnc3)cn12` (centres unmarked) [Compound 95, N^1-(5-Methyl-4-(6-(pyridin-3-ylamino)imidazo[1,2-a]pyridin-3-yl)pyrimidin-2-yl)cyclohexane-1,3-diamine], the Ki on CDK9/T1 worked out at 0.198 µM. Besides, the remaining activity at 10 µM was 76% on CDK4/D1; 28% on CDKs and other kinases [1]; 59% on CDKs and other kinases [2]; 33% at CDKs and other kinases [3]; 76% at CDK6/D3. This molecule also gave a GI50 in the test on leukemia cell lines of 0.646 ± 0.129 µM.

As to `N[C@H]1CC[C@H](Nc2ncc(Cl)c(-c3cnc4c(-c5ccccc5)cc(C(F)(F)F)cn34)n2)CC1` [Compound 85, (1r,4r)-N^1-(5-Chloro-4-(8-phenyl-6-(trifluoromethyl)imidazo[1,2-a]pyridin-3-yl)pyrimidin-2-yl)cyclohexane-1,4-diamine], the Ki turned out to be 0.13 µM on CDK9/T1; 0.77 µM at CDKs and other kinases [1]; 7.44 µM at CDKs and other kinases [2]; 0.048 µM on CDKs and other kinases [3]. Also, the remaining activity at 10 µM was found to be 75% on CDK4/D1 and 43% at CDK6/D3. For the same molecule, growth with leukemia cell lines was halved (GI50) at 1.32 ± 0.549 µM.

As for `N[C@H]1CC[C@H](Nc2ncc(F)c(-c3cnc4ccc(C(F)(F)F)cn34)n2)CC1` [Compound 3, (1r,4r)-N^1-(5-Fluoro-4-(6-(trifluoromethyl)imidazo[1,2-a]pyridin-3-yl)pyrimidin-2-yl)cyclohexane-1,4-diamine], the Ki turned out to be 0.006 µM on CDK9/T1; 0.023 µM at CDKs and other kinases [1]; 0.084 µM on CDKs and other kinases [2]; 0.019 µM on CDKs and other kinases [3]. Also, the values for the remaining activity at 10 µM on CDK4/D1 and at CDK6/D3 were 0% and 46%, respectively. The GI50 in the test on leukemia cell lines is under 0.001 µM.

`N[C@H]1CC[C@H](Nc2ncc(F)c(-c3cnc4ccc(-c5ccccc5)cn34)n2)CC1` [Compound 5, (1r,4r)-N^1-(5-Fluoro-4-(6-phenylimidazo[1,2-a]pyridin-3-yl)pyrimidin-2-yl)cyclohexane-1,4-diamine]: the Ki at CDK9/T1 was 0.002 µM; at CDKs and other kinases [1], 0.006 µM; at CDKs and other kinases [2], 0.014 µM; at CDKs and other kinases [3], 0.075 µM. Besides, the remaining activity at 10 µM at CDK4/D1 turned out to be 0%; at CDK6/D3, 16%. In the test with leukemia cell lines, this molecule displayed a GI50 of 0.003 ± 0.001 µM.

As for `N[C@H]1CC[C@H](Nc2ncc(F)c(-c3cnc4cc(Nc5cccnc5)ccn34)n2)CC1` [Compound 46, (1r,4r)-N^1-(5-Fluoro-4-(7-(pyridin-3-ylamino)imidazo [1,2-a]pyridin-3-yl)pyrimidin-2-yl)cyclohexane-1,4-diamine], the Ki on CDK9/T1 turned out to be 0.004 µM. For the same molecule, the remaining activity at 10 µM on CDK4/D1 amounted to 0%; on CDKs and other kinases [1] it was 0%; at CDKs and other kinases [2], 0%; at CDKs and other kinases [3] it was 3%; at CDK6/D3 it was 1%. Also, the GI50 in the test with leukemia cell lines was under 0.001 µM.

Turning to `N[C@H]1CC[C@H](Nc2ncc(F)c(-c3cnc4cc(-c5ccccc5)ccn34)n2)CC1` [Compound 44, (1r,4r)-N^1-(5-Fluoro-4-(7-phenylimidazo[1,2-a]pyridin-3-yl)pyrimidin-2-yl)cyclohexane-1,4-diamine], on CDK9/T1, the Ki came to 0.007 µM. For the same molecule, the remaining activity at 10 µM was 2% on CDK4/D1; 0% at CDKs and other kinases [1]; 0% at CDKs and other kinases [2]; 2% on CDKs and other kinases [3]; 1% at CDK6/D3. This molecule registered a 50% growth inhibitory concentration (GI50) in the test on leukemia cell lines of under 0.001 µM.

On to `N[C@H]1CC[C@H](Nc2ncc(F)c(-c3cnc4ccc(-c5cccnc5)cn34)n2)CC1` [Compound 26, (1r,4r)-N^1-(5-Fluoro-4-(6-(pyridin-3-yl)imidazo[1,2-a]pyridin-3-yl)pyrimidin-2-yl)cyclohexane-1,4-diamine], for which the Ki at CDK9/T1 amounted to 0.003 µM. Also, the remaining activity at 10 µM on CDK4/D1 worked out at 9%; at CDKs and other kinases [1], 5%; on CDKs and other kinases [2] it was 7%; at CDKs and other kinases [3], 0%; on CDK6/D3, 24%. For the same molecule, the GI50 in the test on leukemia cell lines is under 0.001 µM.

`Cc1cnc(N[C@H]2CC[C@H](N)CC2)nc1-c1cnc2ccc(-c3ccc(N4CCOCC4)nc3)cn12` [Compound 61, (1r,4r)-N^1-(5-Methyl-4-(6-(6-morpholinopyridin-3-yl)imidazo[1,2-a]pyridin-3-yl)pyrimidin-2-yl)cyclohexane-1,4-diamine]: the Ki on CDK9/T1 is 0.49 µM. Moreover, the remaining activity at 10 µM at CDK4/D1 came out at 17%; at CDKs and other kinases [1], 63%; on CDKs and other kinases [2] it was 79%; at CDKs and other kinases [3] it was 37%; on CDK6/D3 it was 89%. Growth with leukemia cell lines was halved (GI50) at 0.083 ± 0.035 µM.

The values above are taken from patent US11111245B2, “Derivatives of N-cycloalkyl/heterocycloalkyl-4-(imidazo[1,2-a]pyridine)pyrimidin-2-amine as therapeutic agents” (Aucentra Therapeutics Pty Ltd, priority 2017, dated 2021).
